Assay results reported in ChEMBL document CHEMBL1201862, “PubChem BioAssay data set” (2004).
Blank lines part the entries; values can stand above or below the compound they belong to. The source made the active and inactive calls.

Columns and labels:
[1] = target: T1, Ubiquitin-conjugating enzyme E2 N (Homo sapiens, UniProt P61088); assay type: functional;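 also: Dose-response confirmation in a TR-FRET assay detecting UBC13-driven polyubiquitin chain formation, inhibition measured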
T1 sequence (P61088 whole entry): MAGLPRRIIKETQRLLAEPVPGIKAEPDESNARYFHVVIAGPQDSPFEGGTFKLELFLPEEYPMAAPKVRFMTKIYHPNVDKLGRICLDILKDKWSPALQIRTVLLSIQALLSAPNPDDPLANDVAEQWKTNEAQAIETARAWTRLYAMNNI

[2] = target: RNA-editing ligase 1, mitochondrial (Trypanosoma brucei brucei, UniProt P86926); experiment: TbREL1 ligase inhibitors, dose response, biochemical, fluorescence, Trypanosoma brucei (AID 1117295); assay type: functional
Chain of RNA-editing ligase 1, mitochondrial (P86926 whole entry): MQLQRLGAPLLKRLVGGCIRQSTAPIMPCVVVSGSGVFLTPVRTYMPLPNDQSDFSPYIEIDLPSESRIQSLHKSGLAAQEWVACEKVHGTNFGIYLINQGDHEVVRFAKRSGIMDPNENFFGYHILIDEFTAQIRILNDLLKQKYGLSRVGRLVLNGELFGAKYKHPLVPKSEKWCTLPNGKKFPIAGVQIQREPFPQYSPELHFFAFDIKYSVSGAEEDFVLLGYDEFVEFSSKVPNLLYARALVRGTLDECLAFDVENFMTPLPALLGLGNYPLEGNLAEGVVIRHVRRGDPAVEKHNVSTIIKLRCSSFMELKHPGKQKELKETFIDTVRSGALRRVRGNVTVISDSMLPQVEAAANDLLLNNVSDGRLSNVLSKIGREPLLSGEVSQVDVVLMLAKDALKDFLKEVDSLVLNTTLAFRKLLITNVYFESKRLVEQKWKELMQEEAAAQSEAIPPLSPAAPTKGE

[3] = P. falciparum late gametocyte killing, dose response, luminescence (AID 1117278); assay type: functional, cell-based;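 also: gametocytes exposed to compound for 24 hours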
[4] = Jurkat T cell cytotoxicity, dose response, cytotoxicity control for P. falciparum gametocyte viability project, luminescence (AID 1117277); assay type: functional, cell-based;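 also: potency reflects loss of cellular ATP meaning fewer viable cells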
Kallikrein-7 = Kallikrein-7 (Homo sapiens, UniProt P49862); experiment: Fluorescence Intensity-based biochemical primary high throughput dose response assay to identify activators of kallikrein-7 (K7) zymogen.
Chain of Kallikrein-7 (P49862 whole entry): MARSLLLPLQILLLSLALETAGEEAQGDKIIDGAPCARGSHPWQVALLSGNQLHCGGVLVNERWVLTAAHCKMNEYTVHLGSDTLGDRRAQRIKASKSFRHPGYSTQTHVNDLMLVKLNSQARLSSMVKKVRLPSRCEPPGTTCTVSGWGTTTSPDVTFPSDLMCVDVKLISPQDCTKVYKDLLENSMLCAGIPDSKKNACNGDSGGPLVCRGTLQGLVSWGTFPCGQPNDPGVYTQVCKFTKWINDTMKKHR

[5] = target: 1-phosphatidylinositol 4,5-bisphosphate phosphodiesterase beta-3 (Homo sapiens, UniProt Q01970); experiment: Fluorescence-based biochemical high throughput dose response assay to identify inhibitors of phospholipase C isozymes (PLC-B3).
Chain of 1-phosphatidylinositol 4,5-bisphosphate phosphodiesterase beta-3 (Q01970 whole entry): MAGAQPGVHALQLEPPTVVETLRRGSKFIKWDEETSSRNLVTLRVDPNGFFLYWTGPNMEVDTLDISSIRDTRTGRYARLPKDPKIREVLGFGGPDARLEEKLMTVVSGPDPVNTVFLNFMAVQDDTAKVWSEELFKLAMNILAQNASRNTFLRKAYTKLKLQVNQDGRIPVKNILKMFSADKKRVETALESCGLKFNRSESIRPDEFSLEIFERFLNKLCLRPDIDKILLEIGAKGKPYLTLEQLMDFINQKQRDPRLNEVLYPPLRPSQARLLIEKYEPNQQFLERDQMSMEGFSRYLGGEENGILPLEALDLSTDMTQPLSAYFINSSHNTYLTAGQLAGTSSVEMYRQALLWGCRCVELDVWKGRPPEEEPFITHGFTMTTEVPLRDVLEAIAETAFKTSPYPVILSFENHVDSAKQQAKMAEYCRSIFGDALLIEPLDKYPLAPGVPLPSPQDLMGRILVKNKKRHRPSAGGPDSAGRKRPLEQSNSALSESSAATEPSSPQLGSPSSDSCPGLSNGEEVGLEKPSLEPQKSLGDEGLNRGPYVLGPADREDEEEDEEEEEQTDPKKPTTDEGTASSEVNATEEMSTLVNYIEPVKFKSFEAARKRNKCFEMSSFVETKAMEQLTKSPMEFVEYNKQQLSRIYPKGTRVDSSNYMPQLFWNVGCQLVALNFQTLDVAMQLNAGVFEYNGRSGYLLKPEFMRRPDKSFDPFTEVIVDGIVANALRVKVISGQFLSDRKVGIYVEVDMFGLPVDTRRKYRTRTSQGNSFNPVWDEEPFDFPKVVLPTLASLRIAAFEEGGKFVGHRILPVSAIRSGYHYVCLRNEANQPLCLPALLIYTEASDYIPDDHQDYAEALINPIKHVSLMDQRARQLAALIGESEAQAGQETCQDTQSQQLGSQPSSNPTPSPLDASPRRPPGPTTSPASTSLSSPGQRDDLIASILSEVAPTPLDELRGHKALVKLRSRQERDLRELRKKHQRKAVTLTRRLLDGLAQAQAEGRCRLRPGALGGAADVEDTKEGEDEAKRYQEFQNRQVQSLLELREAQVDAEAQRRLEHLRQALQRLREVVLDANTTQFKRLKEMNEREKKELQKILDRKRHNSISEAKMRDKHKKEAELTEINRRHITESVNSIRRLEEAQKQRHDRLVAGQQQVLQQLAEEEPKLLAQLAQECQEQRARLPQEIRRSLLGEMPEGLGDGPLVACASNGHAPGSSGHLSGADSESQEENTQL

[6] = target: 1-phosphatidylinositol 4,5-bisphosphate phosphodiesterase gamma-1 (Homo sapiens, UniProt P19174); experiment: Counterscreen for inhibitors of phospholipase C isozymes (PLC-B3): Fluorescence-based biochemical high throughput dose response assay to identify inhibitors of phospholipase C isozymes (PLC-gamma1).
Chain of 1-phosphatidylinositol 4,5-bisphosphate phosphodiesterase gamma-1 (P19174 whole entry): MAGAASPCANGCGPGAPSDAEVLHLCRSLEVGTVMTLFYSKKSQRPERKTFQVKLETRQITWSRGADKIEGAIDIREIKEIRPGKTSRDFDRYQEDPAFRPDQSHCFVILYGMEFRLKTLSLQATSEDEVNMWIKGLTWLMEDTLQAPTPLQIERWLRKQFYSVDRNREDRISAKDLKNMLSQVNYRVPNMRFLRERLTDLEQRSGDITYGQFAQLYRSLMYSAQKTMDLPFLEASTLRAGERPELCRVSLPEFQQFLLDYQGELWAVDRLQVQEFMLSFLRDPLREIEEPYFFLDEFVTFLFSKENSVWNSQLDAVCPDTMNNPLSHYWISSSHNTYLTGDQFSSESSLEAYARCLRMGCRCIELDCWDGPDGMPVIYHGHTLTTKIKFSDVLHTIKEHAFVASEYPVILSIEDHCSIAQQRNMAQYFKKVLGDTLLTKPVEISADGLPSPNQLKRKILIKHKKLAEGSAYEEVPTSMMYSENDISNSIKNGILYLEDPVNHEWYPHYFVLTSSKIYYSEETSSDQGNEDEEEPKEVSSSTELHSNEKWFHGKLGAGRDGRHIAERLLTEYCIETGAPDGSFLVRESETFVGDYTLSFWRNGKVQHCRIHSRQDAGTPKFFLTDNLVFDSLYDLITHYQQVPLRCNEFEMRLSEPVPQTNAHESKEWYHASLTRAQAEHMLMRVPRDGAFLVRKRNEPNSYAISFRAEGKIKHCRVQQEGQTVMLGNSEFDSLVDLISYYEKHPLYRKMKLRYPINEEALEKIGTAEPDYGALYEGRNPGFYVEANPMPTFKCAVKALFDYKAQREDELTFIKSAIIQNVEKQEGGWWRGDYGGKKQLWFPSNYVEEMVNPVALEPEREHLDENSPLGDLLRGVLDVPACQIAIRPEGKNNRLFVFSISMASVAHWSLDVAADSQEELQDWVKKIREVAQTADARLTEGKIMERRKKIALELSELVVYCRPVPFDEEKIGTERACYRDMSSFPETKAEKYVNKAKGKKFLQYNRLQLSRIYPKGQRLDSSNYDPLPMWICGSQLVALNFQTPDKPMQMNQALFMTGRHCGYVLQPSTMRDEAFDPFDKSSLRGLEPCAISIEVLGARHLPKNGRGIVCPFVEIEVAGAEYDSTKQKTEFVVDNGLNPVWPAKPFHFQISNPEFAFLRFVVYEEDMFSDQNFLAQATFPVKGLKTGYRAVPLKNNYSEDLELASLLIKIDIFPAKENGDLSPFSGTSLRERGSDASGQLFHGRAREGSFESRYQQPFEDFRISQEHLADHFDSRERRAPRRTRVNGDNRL

cells = assay type: functional, cell-based; conditions: HEK-CNG
Galanin receptor type 3 = Galanin receptor type 3 (Homo sapiens, UniProt O60755); experiment: Fluorescence-based cell-based primary high throughput dose response assay to identify antagonists of the Galanin Receptor 3 (GalR3).; assay type: functional
Chain of Galanin receptor type 3 (O60755 whole entry): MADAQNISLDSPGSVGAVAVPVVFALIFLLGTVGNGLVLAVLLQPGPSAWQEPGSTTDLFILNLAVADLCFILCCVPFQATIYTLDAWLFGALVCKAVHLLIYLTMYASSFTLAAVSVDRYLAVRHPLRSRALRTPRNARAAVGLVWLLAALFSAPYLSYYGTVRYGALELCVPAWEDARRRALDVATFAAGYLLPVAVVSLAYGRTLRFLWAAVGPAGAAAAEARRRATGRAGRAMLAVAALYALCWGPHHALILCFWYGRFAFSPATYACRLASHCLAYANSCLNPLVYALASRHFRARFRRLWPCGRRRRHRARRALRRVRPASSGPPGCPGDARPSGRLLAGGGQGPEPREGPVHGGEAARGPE

[7] = target: T2, COUP transcription factor 2 (Homo sapiens, UniProt P24468); experiment: Luminescence-based cell-based high throughput dose response assay to identify inhibitors of COUP-TFII (NR2F2).; assay type: functional;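 also: HEK293 cells transiently cotransfected with COUP-TFII expression vector and reporter; luciferase reporter luminescence driven by COUP-TFII from the pX2-168 reporter plasmid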
T2 sequence (P24468 whole entry): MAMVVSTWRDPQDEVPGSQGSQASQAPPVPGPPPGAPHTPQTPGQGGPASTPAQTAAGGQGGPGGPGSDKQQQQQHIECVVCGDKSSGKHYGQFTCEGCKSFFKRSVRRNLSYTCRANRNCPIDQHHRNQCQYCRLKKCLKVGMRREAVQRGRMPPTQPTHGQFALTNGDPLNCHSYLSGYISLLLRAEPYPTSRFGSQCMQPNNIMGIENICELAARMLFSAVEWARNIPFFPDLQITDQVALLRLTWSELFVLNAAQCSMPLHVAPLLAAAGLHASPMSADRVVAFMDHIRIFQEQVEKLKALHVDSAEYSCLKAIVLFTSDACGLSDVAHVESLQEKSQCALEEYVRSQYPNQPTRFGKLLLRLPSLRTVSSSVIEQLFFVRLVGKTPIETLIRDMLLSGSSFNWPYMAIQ

[8] = inhibitors of clade B AD8 Env fusion, dose response, cell-based, cherry-pick (AID 652062); assay type: functional;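 also: luciferase signal from cell-cell fusion driven by HIV-1 clade B AD8 Env; potency is for inhibitors of fusion seen as a drop in luminescence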
[9] = inhibitors of HIV Env-driven cell fusion, dose response, cherry-pick (AID 652057); assay type: functional, cell-based
[10] = CEM21 lymphoblast cell cytotoxicity, dose response, cytotoxicity control for viral fusion inhibitor project, CellTiter-Glo luminescence, cherry-picked (AID 652042); assay type: functional, cell-based;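 also: potency for signal decrease meaning cytotoxicity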
[11] = ZM109 Env clade C HIV-1 fusion inhibitors, dose response, HeLa effector, CEM target cells, luciferase, cherry-pick (AID 652058); assay type: functional, cell-based
[12] = control 3'UTR Renilla luciferase suppression, dose response, counter-screen for Shn3 inhibitor project, cell-based, Clone20-Shn3RL, cherry-picked (AID 624133); assay type: functional
[13] = HepG2 cell cytotoxicity, dose response, cytotoxicity control for Shn3 inhibitor project, CellTiter-Glo, cherry-picked (AID 624134); assay type: functional, cell-based
[14] = Shn3 3'UTR reporter inhibitors, dose response, cell-based, Clone20 osteoblasts, firefly luciferase, cherry-picked (AID 624132); assay type: functional;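 also: firefly luciferase luminescence from reporter carrying the Shn3 3'UTR in osteoblasts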
[15] = target: T3, Low molecular weight phosphotyrosine protein phosphatase (Homo sapiens, UniProt P24666); experiment: LMPTP phosphatase inhibitors, dose response, biochemical, OMFP substrate, fluorescence intensity, set 2 (AID 743307); assay type: functional
T3 sequence (P24666 whole entry): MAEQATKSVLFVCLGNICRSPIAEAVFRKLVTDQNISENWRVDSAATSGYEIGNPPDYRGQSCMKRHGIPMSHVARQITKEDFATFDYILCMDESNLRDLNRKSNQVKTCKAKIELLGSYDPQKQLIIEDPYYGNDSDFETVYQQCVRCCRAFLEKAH

[16] = target: T3, Low molecular weight phosphotyrosine protein phosphatase; experiment: LMPTP phosphatase inhibitors, colorimetric pNPP readout, dose response, orthogonal assay, biochemical, absorbance, pNPP substrate, LMPTP-A isoform, set 2 (AID 743308); assay type: functional
[17] = Vero cell cytotoxicity, dose response, cytotoxicity control for Vif-APOBEC3G degradation inhibitor project, Vero cells (AID 1117358); assay type: functional; conditions: Human immunodeficiency virus 1, Vero

IC50 [1]: > 20 µM (inactive) | IC50 [2]: > 96.6 µM (inactive)
SMILES: CC[C@@H](C)[C@@H]1CN([C@@H](C)CN2CCC[C@H]2CN2C(N)=NC[C@H]2C(C)C)C(=N)N1CCc1ccc(Cl)c(Cl)c1

SMILES: Cc1cc(C)c2nc(-c3ccccn3)cc(C(=O)n3cccn3)c2c1
IC50 [3]: > 109 µM (inactive) | IC50 [1]: > 20 µM (inactive) | IC50 [4]: > 83.2 µM (inactive)

EC50 (Kallikrein-7): > 69.5 µM (inactive)
SMILES: O=C1c2ccccc2NC(c2ccccc2)N1Cc1ccco1 (stereo not given)

IC50 [5]: > 122 µM (inactive) | IC50 [6]: > 122 µM (inactive)
SMILES: COc1cc(C(=O)Nc2ccc3c(c2)C(=O)N(CCC(=O)O)C3=O)cc(OC)c1OC

SMILES: O=C(Nc1ccccn1)C1CCN(S(=O)(=O)c2cccc3nonc23)CC1
IC50 [3]: > 109 µM (inactive) | IC50 [4]: > 83.3 µM (inactive)

SMILES: Cc1ccccc1Cn1c(C)nc2ccccc21
EC50 (cells): > 29.9 µM (inactive) | IC50 (Galanin receptor type 3): 0.331 µM (active) | IC50 [7]: 13.2 µM (inactive)

SMILES: C[C@@H]1CN([C@H](C)CO)S(=O)(=O)c2ccc(C3=CCCCC3)cc2O[C@@H]1CN(C)S(=O)(=O)c1ccc(F)cc1
AC50 [8]: 7.76 µM (active) | AC50 [9]: 8.56 µM (active) | AC50 [10]: 32.5 µM (active) | AC50 [11]: 12.1 µM (active)

SMILES: Nc1nonc1C(=O)NCCNCc1cc(Br)ccc1OCc1ccccc1F
AC50 [8]: 14.9 µM (active) | AC50 [12]: 0.91 µM (active) | AC50 [13]: 40.4 µM (active) | AC50 [10]: 40.5 µM (active) | AC50 [14]: 2.5 µM (active)

IC50 [15]: > 80 µM (inactive) | IC50 [16]: > 80 µM (inactive)
SMILES: c1ccc(-c2nc(N3CCCCC3)c3ccccc3n2)cc1

SMILES: Cc1ccc(C)c(S(=O)(=O)Nc2ccc3scnc3c2)c1
CC50 [17]: > 40 µM (active)
